Laboratory results from patent US10640527B2, “Mesitylene-cored amphiphiles and uses thereof” (Industry-University Cooperation Foundation Hanyang …, priority 2016, dated 2020).
Several values for one entry are separate records, joined by “and”; a condition that tells them apart may be missing. Identical values can stand only once.

Columns and labels:
[1] = Critical micelle concentration by fluorophore encapsulation using diphenylhexatriene (DPH); format: physicochemical; settings: aqueous solution
Experimental: A method of measuring a CMC is not particularly limited, and those methods widely known in the related field may be used. For example, a CMC may be measured by a fluorophore encapsulation method using diphenylhexatriene (DPH).
(§1) Specifically, a CMC was measured by a fluorophorescent encapsulation method using diphenylhexatriene (DPH) and an Rh of a micelle formed by each formulation (1.0 wt %) was measured using a dynamic light scattering (DLS) experiment.

[2] = Hydrodynamic radius / size distribution of micelles by dynamic light scattering (DLS); format: physicochemical; settings: 1.0 wt % amphiphile
Experimental: A method of measuring a radius of the micelle is not particularly limited, and those methods widely known in the related field may be used, for example, a dynamic light scattering (DLS) experiment may be used for measurement.
as §1

[3] = biological target: T1, melibiose permease (MelBSt) (Salmonella typhimurium, UniProt P30878); assay: MelBSt extraction from membranes and thermal stability, SDS-PAGE and Western blotting; format: biochemical; settings: 1.5 wt %, 90 minutes; for MelBSt protein extraction efficiency compared with DDM: 45° C.; for MelBSt extraction ability compared with DDM: 55° C.
T1 construct: made in house; host or cells: DW2 cells (ΔmelB and ΔlacZY), Salmonella typhimurium DW2
T1 sequence (P30878 whole entry): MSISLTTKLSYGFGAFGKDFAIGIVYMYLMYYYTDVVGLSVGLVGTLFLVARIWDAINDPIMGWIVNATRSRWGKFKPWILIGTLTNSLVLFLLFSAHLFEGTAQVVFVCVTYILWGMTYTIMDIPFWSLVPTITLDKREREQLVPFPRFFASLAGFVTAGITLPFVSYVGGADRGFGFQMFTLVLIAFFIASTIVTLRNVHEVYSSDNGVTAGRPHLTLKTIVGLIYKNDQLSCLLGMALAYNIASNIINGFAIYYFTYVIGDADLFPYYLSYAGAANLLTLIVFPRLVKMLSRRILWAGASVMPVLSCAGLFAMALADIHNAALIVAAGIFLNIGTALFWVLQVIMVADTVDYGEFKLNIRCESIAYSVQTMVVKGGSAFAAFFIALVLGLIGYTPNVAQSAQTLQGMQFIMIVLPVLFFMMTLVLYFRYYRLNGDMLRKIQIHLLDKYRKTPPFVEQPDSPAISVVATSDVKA
Experimental: An experiment for measuring the structural stability of Salmonella typhimurium melibiose permease (MelBSt) according to MGAs in an aqueous solution was performed. After MelBSt proteins were extracted from a membrane using MGAs or DDM, the amount and structure of extracted proteins were analyzed by SDS-PAGE and western blotting. The concentration of used amphiphiles was 1.5 wt %, and proteins were extracted at four different temperatures of 0, 45, 55 and 65° C. to evaluate both the protein extraction efficiency and stabilizing ability of a compound. A membrane sample which had not been treated with MGAs or DDM was used as a control group.
Specifically, MelBSt stability solubilized in DDM or MGAs was evaluated according to a method described in 2010 in a research article (P. S. Chae et al., Nat. Methods 2010, 7, 1003-1008.) by the inventors of the present invention. Proteins (MelBSt) were produced using plasmid pK95ΔAHB/WT MelBSt/CH10 encoding the wild-type MelB with a 6-His tag at the C-terminus and Salmonella typhimurium DW2 cells (ΔmelB and ΔlacZY). Cell growth and membrane preparation was performed according to a method described in a research article (Nat. Commun. 2014, 5, 3009) by A. S. Ethayathulla, et al. A protein assay was carried out using a Micro BCA kit (Thermo Scientific, Rockford, Ill.). In order to measure protein solubilization, a membrane sample (final protein concentration was 10 mg/mL) containing MelBSt was incubated with a solubilization buffer (20 mM sodium phosphate, pH 7.5, 200 mM NaCl, 10% glycerol and 20 mM melibiose) and 1.5% (w/v) DDM or MGA (MGA-C10, MGA-C11, MGA-C12, MGA-C13, MGA-C14 or MGA-C15) at four different temperatures of 0, 45, 55 and 65° C. for 90 minutes. After ultracentrifugation at 355,590 g in a Beckman Optima™ MAX Ultracentrifuge using a TLA-100 rotor for 45 min at 4° C., 20 μg of a protein was separated by SDS-16% PAGE and immunoblotted with a Penta-His-HRP antibody (Qiagen, Germantown, Md.). MelBSt was measured by an ImageQuant LAS 4000 Biomolecular Imager (GE Healthcare Life Sciences) using a SuperSignal West Pico chemiluminescent substrate.

[4] = system: leucine transporter (LeuT); assay: LeuT long-term stability, [3H]-Leu binding by scintillation proximity assay (SPA); format: biochemical, Aquifex aeolicus; settings: after 12 days of incubation at room temperature
Experimental: An experiment for measuring the structural stability of LeuT proteins according to MGAs (MGA-C11, MGA-C12, MGA-C13, MGA-C14 and MGA-C15) was performed. Each amphiphile was used at a concentration of (a) CMC+0.04 wt % or (b) CMC+0.2 wt %, a ligand-binding activity of LeuT was measured by scintillation proximity assay (SPA) using [^3H]-Leucine. The measurement was performed at regular intervals at room temperature during 12 days of incubation.
Specifically, a thermophilic bacteria Aquifex aeolicus-derived wild type LeuT was purified using a previously described method (Nature, G. Deckert et al., 1998, 392, 353-358). To sum up, the LeuT was expressed in E. coli C41 (DE3) cultured in a lysogeny broth medium supplemented with 0.1 mg/ml ampicillin. Expression of proteins was induced by adding isopropyl β-D-thiogalactopyranoside to a final concentration of 0.1 mM.
A cell membrane was separated from a crushed cell (Constant Systems Homogenizers, Kennesaw, Ga.), and solubilized in 1% (w/v) n-dodecyl-β-D-maltopyranoside (DDM; Affymetrix, Santa Clara, Calif.). After solubilization, LeuT was fixed in a Ni^2+-NTA resin (Life Technologies, Denmark), and eluted in 20 mM Tris-HCl (pH 7.5), 199 mM KCl, 1 mM NaCl, 0.05% (w/v) DDM and 300 mM imidazole. Thereafter, purified LeuT (about 1.5 mg/ml) was diluted tenfold with a buffer supplemented with MGA (MGA-C11, MGA-C12, MGA-C13, MGA-C14 or MGA-C15) or DDM to the final concentration of CMC+0.04% (w/v) or CMC+0.2% (w/v) while excluding DDM and imidazole from the above-described buffers. Protein samples were stored at room temperature for 12 days, and protein activity was determined by measuring [^3H]-Leu binding by SPA at a specified time. SPA was carried out using 450 mM NaCl and buffers containing each MGA, and a SPA reaction was performed in the presence of 20 nM [^3H]-Leu and 1.25 mg/ml copper chelate (His-Tag) YSi beads (Perkin Elmer, Denmark). [^3H]-Leu binding was measured using a MicroBeta liquid scintillation counter (Perkin Elmer).

[5] = biological target: T2, human β2-adrenergic receptor (β2AR) (Homo sapiens, UniProt P07550); assay: β2AR stability, [3H]-dihydroalprenolol radioligand binding; format: biochemical; settings: after three days of incubation at room temperature, CMC+0.2 wt %
T2 sequence (P07550 whole entry): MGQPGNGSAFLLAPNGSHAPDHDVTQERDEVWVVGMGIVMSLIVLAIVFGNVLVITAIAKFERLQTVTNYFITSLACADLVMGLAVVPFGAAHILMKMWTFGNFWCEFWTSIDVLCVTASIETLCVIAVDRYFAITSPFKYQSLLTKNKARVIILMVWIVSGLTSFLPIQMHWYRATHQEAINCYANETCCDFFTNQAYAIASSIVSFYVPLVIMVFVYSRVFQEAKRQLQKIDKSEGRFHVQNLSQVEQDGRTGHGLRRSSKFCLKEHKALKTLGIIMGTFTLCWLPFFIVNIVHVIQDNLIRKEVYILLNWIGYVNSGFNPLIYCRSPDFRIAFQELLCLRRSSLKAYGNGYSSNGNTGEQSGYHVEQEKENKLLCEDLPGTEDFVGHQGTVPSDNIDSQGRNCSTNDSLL
Experimental: The activity of a receptor (β2AR) purified by DDM or MGAs (MGA-C12, MGA-C13 and MGA-C14) was measured by binding of [^3H]-dihydroalprenolol ([^3H]-DHA).
Specifically, the following method was used in a radioligand binding experiment. β2AR was purified by 0.1% DDM. The DDM-purified β2AR was diluted with a buffer solution containing each amphiphile (DDM or an MGA) such that the final concentration of the amphiphile was CMC+0.2 wt %. β2AR dissolved in each amphiphile was stored at room temperature for three days, and incubated at room temperature for 30 minutes using 10 nM-radioactive [^3H]-dihydroalprenolol (DHA) to measure ligand binding thereof at regular intervals. The mixture was loaded into a G-50 column, and passing liquid was collected using a binding buffer (20 mM HEPES pH 7.5, 100 mM NaCl supplemented with 0.5 mg/ml BSA) and 15 ml of a scintillation fluid was added thereto. Receptor-coupled [^3H]-DHA was measured by a scintillation counter (Beckman). Non-specific binding of [^3H]-DHA was measured by adding 1 μM of alprenolol (Sigma) in the same reaction. Binding of [^3H]-DHA was measured by column graphs.

[6] = biological target: T2, human β2-adrenergic receptor (β2AR); assay: Size exclusion chromatography (SEC) of β2AR solubilized in amphiphile; settings: for SEC profile of solubilized β2AR: amphiphile-free running buffer
Experimental: A size exclusion chromatography (SEC) experiment was conducted to determine the β2AR crystallization effect and β2AR stability preservation effect by MGA-C13 or DDM.
Specifically, β2AR purified by 0.1% DDM was mixed with a DDM or MGA-C13 buffer (20 mM HEPES pH 7.5, 100 mM NaCl, 0.2% of each amphiphile) and incubated for 30 minutes. The sample was applied to a Superdex-200 10/300 GL column (GE Healthcare Life Sciences) at a rate of 0.5 ml/min, fluorescence was recorded at 345 nm, and an […] wavelength was 295 nm. A running buffer contained 20 mM HEPES (pH 7.5) and 100 mM NaCl, and contained each amphiphile (DDM or MGA-C13) or not.

[7] = biological target: T3, uric acid-xanthine/H+ symporter (UapA) (Emericella nidulans, UniProt Q07307, G411V); assay: UapA structural (thermal) stability, CPM assay; format: biochemical, Aspergillus nidulans
T3 construct: GFP; made in house; host or cells: Saccharomyces cerevisiae FGY217
T3 sequence (Q07307 12-574 G411V): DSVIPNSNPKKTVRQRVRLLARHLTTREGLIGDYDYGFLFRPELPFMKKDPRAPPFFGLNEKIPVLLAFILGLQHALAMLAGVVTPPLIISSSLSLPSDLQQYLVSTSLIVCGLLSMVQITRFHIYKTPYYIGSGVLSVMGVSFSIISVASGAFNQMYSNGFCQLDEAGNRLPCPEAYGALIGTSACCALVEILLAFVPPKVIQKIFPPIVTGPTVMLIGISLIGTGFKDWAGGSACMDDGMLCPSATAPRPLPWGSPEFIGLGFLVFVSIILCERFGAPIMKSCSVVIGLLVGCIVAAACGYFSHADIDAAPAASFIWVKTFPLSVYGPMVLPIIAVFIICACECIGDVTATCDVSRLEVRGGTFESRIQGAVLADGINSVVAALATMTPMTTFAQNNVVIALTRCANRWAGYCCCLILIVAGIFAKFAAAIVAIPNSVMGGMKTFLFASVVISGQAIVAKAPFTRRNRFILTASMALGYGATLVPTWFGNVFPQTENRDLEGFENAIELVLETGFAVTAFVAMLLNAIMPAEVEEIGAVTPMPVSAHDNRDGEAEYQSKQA
Experimental: An experiment for measuring the structural stability of uric acid-xanthine/H^+ symporter (UapA) solubilized in MGAs in an aqueous solution was performed. The structural stability of UapA was measured using a CPM assay, and was measured at MGAs and DDM concentrations of (a) CMC+0.04 wt %, or (b) CMC+0.2 wt %.
Specifically, a UapA protein is a uric acid-xanthine/H^+ symporter in Aspergillus nidulans. Protein stability was measured by fluorescence spectroscopy using N-[4-(7-diethylamino-4-methyl-3-coumarinyl)phenyl]maleimide (CPM) which is a sulfhydryl-specific fluorophore. A free sulfhydryl group of a cysteine residue is in the interior of a protein, but becomes accessible to a solvent upon protein unfolding. CPM becomes fluorescent by a reaction with the free thiol, and thus provides as a protein unfolding sensor. In order to measure thermal stability, first, UapAG411V1-11 was expressed in the Saccharomyces cerevisiae FGY217 strain by fusion with GFP, and separated in a sample buffer (20 mM Tris (pH 7.5), 150 mM NaCl, 0.03% DDM and 1 mM xanthine) according to a method described in a research article (Mol. Membr. Biol. 2013, 30, 32-42) by J. Leung et al. A UapA protein was concentrated to about 10 mg/ml using a 100 kDa molecular weight cut-off filter (Millipore). The concentrated protein was diluted to a ratio of 1:150 with each buffer including DDM or MGA (MGA-C10, MGA-C11, MGA-C12, MGA-C13, MGA-C14 or MGA-C15) at a concentration of CMC+0.04 wt % or CMC+0.2 wt % in a Greiner 96-well plate. A CPM dye (Invitrogen) stored in DMSO (Sigma) was diluted with a dye buffer (20 mM Tris (pH 7.5), 150 mM NaCl, 0.03% DDM and 5 mM EDTA), and 3 μl of the diluted dye was added to each protein sample. The reaction mixture was incubated at 40° C. for 120 minutes. Fluorescence emission was monitored using a microplate spectrofluorometer, with an excitation wavelength at 387 nm and an emission wavelength at 463 nm. Relative maximum fluorescence was used to calculate a percentage of relative folded protein remaining after 120 minutes at 40° C. Relative unfolded proteins were plotted against time using GraphPad Prism.
Specifically, a UapA stabilization effect was evaluated by the same method as in Experimental Example 2 using MGA-C13, MGA-C14, MNG-3 or DDM at a concentration of (a) CMC+0.04 wt % or (b) CMC+0.2 wt %.

[8] = Water-solubility; format: physicochemical; settings: in water

Compound: CCCCCCCCCCCCO[C@@H]1O[C@H](CO)[C@@H](O[C@H]2O[C@H](CO)[C@@H](O)[C@H](O)[C@H]2O)[C@H](O)[C@H]1O [DDM, n-dodecyl-β-D-maltopyranoside, reference compound]
- CMC [1]: ~170 µM
- CMC (wt %) [1]: ~0.0087 wt %
- Rh (nm), hydrodynamic radius of micelle [2]: 3.4 nm and 3.4 ± 0.02 nm
- MelBSt protein extraction efficiency ([3]; 0° C. and 45° C.): high protein extraction efficiency
- MelBSt protein extracted ([3]; 55° C. or more): almost no protein was observed
- LeuT ligand-binding activity retained, % of initial activity [4]: ~40%
- β2AR receptor (ligand binding) activity retained [5]: ~15%
- SEC profile of solubilized β2AR [6]: largely decreased monodispersed peak intensity (˜13 mL) and a new broad aggregate peak (˜10 mL)

Compound: CCCCCCCCCCCCCC(CO[C@@H]1OC(CO)[C@@H](O)C(O)C1O)(CO[C@@H]1OC(CO)[C@@H](O)C(O)C1O)Cc1cc(CC(CCCCCCCCCCCCC)(CO[C@@H]2OC(CO)[C@@H](O)C(O)C2O)CO[C@@H]2OC(CO)[C@@H](O)C(O)C2O)cc(CC(CCCCCCCCCCCCC)(CO[C@@H]2OC(CO)[C@@H](O)C(O)C2O)CO[C@@H]2OC(CO)[C@@H](O)C(O)C2O)c1 (some centres unmarked) [MGA-C13]
- CMC [1]: ~3 µM
- CMC (wt %) [1]: ~0.0006 wt %
- Rh (nm), hydrodynamic radius of micelle [2]: 3.2 ± 0.03 nm
- UapA stabilization effect compared with MNG-3 ([7]; CMC+0.04 wt % or CMC+0.2 wt %, FIG. 25): far greater UapA stabilization effect than MNG-3
- effect in maintaining folded UapA, ranking among MGAs ([7]; CMC+0.2 wt %, 40° C., 120 minutes): had the highest effect
- MelBSt protein extraction efficiency compared with DDM [3]: same level of protein extraction efficiency as DDM
- MelBSt extraction ability compared with DDM [3]: higher MelBSt extraction ability than DDM
- size of protein-detergent complexes (PDCs) with β2AR ([6]; SEC, amphiphile-containing buffer, 0.2% amphiphile): smaller protein-detergent complexes (PDCs) than DDM
- SEC profile of solubilized β2AR [6]: almost no change

Compound: CCCCCCCCCCCCCCCC(CO[C@@H]1OC(CO)[C@@H](O)C(O)C1O)(CO[C@@H]1OC(CO)[C@@H](O)C(O)C1O)Cc1cc(CC(CCCCCCCCCCCCCCC)(CO[C@@H]2OC(CO)[C@@H](O)C(O)C2O)CO[C@@H]2OC(CO)[C@@H](O)C(O)C2O)cc(CC(CCCCCCCCCCCCCCC)(CO[C@@H]2OC(CO)[C@@H](O)C(O)C2O)CO[C@@H]2OC(CO)[C@@H](O)C(O)C2O)c1 (some centres unmarked) [MGA-C15]
- CMC [1]: ~1.5 µM
- CMC (wt %) [1]: ~0.0003 wt %
- Rh (nm), hydrodynamic radius of micelle [2]: 3.6 ± 0.02 nm
- water-solubility [8]: ≥ 20%
- MelBSt protein extraction efficiency compared with DDM [3]: same level of protein extraction efficiency as DDM
- MelBSt extraction ability compared with DDM [3]: higher MelBSt extraction ability than DDM
